{"source": "patent US20210299079A1", "about": "“MONOMETHYL FUMARATE-CARRIER CONJUGATES AND METHODS OF THEIR USE” (Flagship Pioneering Innovations V, Inc., priority 2018, published 2021)", "key": {"IL-1β": {"system": "IL-1β", "test": "Cytokine Release from Human PBMCs: IL-1β", "format": "cell-based", "settings": "LPS, 24 hours, Concentration 100 μM", "experimental": "(§1) Human donor blood (8 mL) was collected in sodium citrate CPT tubes and centrifuged at 1,600×g for 20 minutes at room temperature. Buffy coat containing PBMCs was collected and transferred to a 50 mL conical tube containing 30 mL of RPMI-1640 medium at room temperature (supplemented with penicillin-streptomycin). PBMCs samples were centrifuged at 400×g for 10 minutes at 10° C. The pelleted PBMCs were washed twice in 10 ml of RPMI-1640 medium (supplemented with penicillin-streptomycin), then resuspended in RPMI-1640 medium (supplemented with penicillin-streptomycin, fetal bovine serum, and L-Glutamine). PBMCs were filtered through a 70 micron mesh to remove any cellular debris. […] PBMCs in a 96-well plate were rested for 30 minutes in a 37° C., 5% CO2 incubator, then subsequently treated with 10 μI of indicated compound. After 2 hours 10 μL of LPS (0111:64) 1 mg/mL was added to test wells. After 24 hours of incubation at 37° C., 5% CO2, 100 μL of cell supernatant was collected and transferred to a 96-well plate (non-tissue treated, flat bottom). The plate was centrifuged at 350×g for 5 minutes at room temperature, and then the clear supernatant transferred to a new 96-well plate (non-tissue treated, flat bottom). The remaining cells were tested for viability using CellTiter-Glo® Luminescent Cell Viability Assay (Promega). The supernatant was analyzed for TNFα, IL-6 and IL-1β (kit […] Systems), using Luminex Immunoassay Technology (MAGPIX System)."}, "MIP-1α": {"system": "MIP-1α", "test": "Neutrophil Chemokine Production Assay: MIP-1α", "format": "cell-based", "settings": "human neutrophils, 12 h", "procedure,_shortened": "(§2)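 Neutrophils were isolated from human blood by Histopaque-1077 separation and RBC lysis, then plated at 2.0×10^5 cells/well in RPMI complete. Cells were stimulated with LPS (10 μL of a 2 μg/mL solution) for 12 h at 37 °C. Supernatant chemokines were measured by Luminex multiplex, averaging three data points from two donors.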"}, "Caco-2 colonocytes": {"system": "Caco-2 colonocytes", "test": "Human Caco-2 Barrier Integrity Assay, Study 1", "format": "cell-based", "settings": "Caco-2, + cytokines (TNFα, IFNγ, IL-1β), 48 hours", "procedure,_shortened": "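Caco-2 cells grown in supplemented DMEM were seeded on collagen I-coated transwell membranes, with medium in both apical and basolateral compartments. TEER was read again after 48 hours, and viability assessed by MTS-type CellTiter 96 AQueous One assay.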"}, "[1]": {"system": "experimental autoimmune encephalomyelitis (EAE)", "test": "In Vivo EAE Model of Multiple Sclerosis", "parameters": "species or system C57BL/6J mice", "experimental": "For experimental autoimmune encephalomyelitis (EAE) study, 8- to 11-week-old C57BL/6J mice were anesthetized and subcutaneously injected with […] and […]. Pertussis toxin (200 ng/mouse) was applied i.p. on days 0. Daily clinical evaluation was performed via a 5-point scale, and the clinical progression was observed over 28 days (FIG. 2A). […] At the end of the study, flow cytometry analysis was performed on the spleen (n=8 per group). […] Statistical analysis was performed with GraphPad Prism (GraphPad Software). Unpaired t test was used to assess significance between the control (Vehicle) and each treatment group. For experimental autoimmune encephalomyelitis (EAE) studies, 8- to 11-week old C57BL/6J mice were anesthetized and subcutaneously injected with […] and […]. Pertussis toxin (200 ng/mouse) was applied intraperitoneally on day 0. Daily clinical evaluation as performed using a 5-point scale and the clinical progression was observed over 28 days (FIGS. 2C and 2D)."}, "IL-6": {"system": "IL-6", "test": "Cytokine Release from Human PBMCs: IL-6", "format": "cell-based", "settings": "LPS, 24 hours, Concentration 100 μM", "experimental": "as §1"}, "MIP-1β": {"system": "MIP-1β", "test": "Neutrophil Chemokine Production Assay: MIP-1β", "format": "cell-based", "settings": "human neutrophils, 12 h", "procedure,_shortened": "as §2"}}}
{"compound": "CCC(=O)O", "note": "[propionate]", "values": [{"measurement": "IL1β % DMSO control", "setting": "IL-1β", "result": "+ ((+) 50% > <90% DMSO)"}, {"measurement": "% MIP-1α (Vehicle + LPS = 100%)", "setting": "MIP-1α; Conc. 500.0 μM", "result": "+++ (+++ = <50% Vehicle)"}, {"measurement": "% MIP-1α (Vehicle + LPS = 100%)", "setting": "MIP-1α; Conc. 1000.0 μM", "result": "+++ (+++ = <50% Vehicle)"}, {"measurement": "% MIP-1α (Vehicle + LPS = 100%)", "setting": "MIP-1α; Conc. 3000.0 μM", "result": "+++ (+++ = <50% Vehicle)"}, {"measurement": "% Change in TEER from DMSO", "setting": "Caco-2 colonocytes; 1 mM", "result": "+ (125% > <150%: +)"}, {"measurement": "% Change in TEER from DMSO", "setting": "Caco-2 colonocytes; 3 mM", "result": "++ (150% > <200%: ++)"}, {"measurement": "EAE score (5-point scale) compared to control (vehicle only)", "setting": "[1]; Study 1, 200 mM in drinking water, 28 days", "result": "lower EAE scores"}, {"measurement": "TH17 cell (CD3+)/regulatory T cells (CD3+, Foxp3+) ratio", "setting": "[1]; Study 1, spleen flow cytometry at end of study, 200 mM in drinking water, vs vehicle, P<0.05", "result": "significantly reduced"}, {"measurement": "IL6 % DMSO control", "setting": "IL-6", "result": "+ ((+) 50% > <90% DMSO)"}, {"measurement": "% MIP-1β (DMSO + LPS = 100%)", "setting": "MIP-1β; Conc. 500.0 μM", "result": "+++ (+++ = <50% Vehicle)"}, {"measurement": "% MIP-1β (DMSO + LPS = 100%)", "setting": "MIP-1β; Conc. 1000.0 μM", "result": "+++ (+++ = <50% Vehicle)"}, {"measurement": "% MIP-1β (DMSO + LPS = 100%)", "setting": "MIP-1β; Conc. 3000.0 μM", "result": "+++ (+++ = <50% Vehicle)"}]}
